According to patent US20260053811A1, “METHODS OF TREATING HYPERTENSION IN OBESE SUBJECTS” (Mineralys Therapeutics, Inc., priority 2022, published 2026):
Like-named read-outs stand apart in the source and are kept apart here. Marks after values point to notes of the source that are not given here.

How the values were obtained:
Type in all cases: in vivo, human
[1] = Pharmacokinetics (plasma Cmax, AUC, Tmax, t1/2, trough concentrations); settings: steady state Day 28; for Cmax / AUC(0-t) / Tmax: human, plasma, oral; for Cmax / AUC(0-t): 100 mg; for Tmax: read-out: Tmax, Median
Text: Pharmacokinetic endpoints of this study are PK parameters, including, of area under the plasma concentration versus time curve (AUC), maximum plasma concentration (Cmax), time to maximum concentration (Tmax), and half-life (t1/2) will be summarized descriptively for Randomization (baseline) and Study Weeks 1, 4, and 8
(§1) PK/PD Analysis Set includes all subjects in the SAF who have sufficient data available for the analysis of pharmacokinetic and pharmacodynamic measurements. In the analyses based on PKPD, subjects will be analyzed according to the actual treatment received.

plasma renin activity = experiment: Plasma renin activity (PRA) (pharmacodynamic response); settings: for Renin Activity, Mean (SD) Observed / Renin Activity, Mean (SD) Percent Change from Baseline: Part 1; for Renin Activity, Mean Observed / Renin Activity, Mean Percent Change from Baseline: Part 2
Text: as §1

hypertensive subjects = experiment: Serum potassium; settings: for Increase in potassium levels relative to baseline: Week 8; for Individuals with increased serum K+, Mild 5.6-6.0 mMol/L (number) / Individuals with increased serum K+, Mild 5.6-6.0 mMol/L (percent) / Individuals with increased serum K+, Moderate 6.1-6.5 mMol/L / Individuals with increased serum K+, Severe >6.5 mMol/L: during treatment
Text: Safety endpoints of this study are: • (a) Incidence and severity of all spontaneously reported adverse events (AEs) • (b) Changes in vital signs (standing SBP, standing DBP, body temperature, heart rate, and respiratory rate) • (c) Changes in electrocardiogram parameters (including cardiac intervals: PR, QRS, QT, and corrected QT interval using Fridericia's formula) • (d) Changes in clinical laboratory assessments (hematology, chemistry, coagulation, and urinalysis) • (e) Change in office-measured SBP from Study Week 8 (end-of-treatment period to end of follow up (i.e. end of Study Week 12 for Part 1 and end of Study 10 for Part 2).
The Safety Analysis Set includes all enrolled subjects who received at least one dose of study treatment (MLS-101 or placebo). In analyses performed on the Safety Analysis Set, subjects will be analyzed according to their actual treatment received.

## CC(=O)N[C@H]1CC[C@H](NC(=O)CN2CCN(c3nncc(-c4ccc(C)cc4)n3)CC2)CC1 [Compound A HBr]
[1]; 100 mg QD Part 1, read-out: Cmax, Median
  Cmax: 1590 ng/mL
[1]; 100 mg QD Part 2, read-out: AUC0-24, Geo Mean
  AUC(0-t): 6920 ng·h/mL
[1]; 100 mg QD Part 2, read-out: AUC0-24, Mean (SD)
  AUC(0-t): 7480 ng·h/mL
[1]; 100 mg QD Part 2, read-out: AUC0-24, Median
  AUC(0-t): 7090 ng·h/mL
[1]; 100 mg QD Part 2, read-out: Cmax, Geo Mean
  Cmax: 1000 ng/mL
[1]; 100 mg QD Part 2, read-out: Cmax, Mean (SD)
  Cmax: 1360 ng/mL
[1]; 100 mg QD Part 2, read-out: Cmax, Median
  Cmax: 1250 ng/mL
[1]; 12.5 mg QD
  Tmax: 1.08 h
[1]; 50 mg QD
  Tmax: 2.01 h
[1]; 12.5 mg BID
  Cmax, Geo Mean: 140 ng/mL
  Cmax, Mean (SD): 142 (28.3) ng/ml
[1]; 25 mg BID
  Cmax, Mean (SD): 361 (175) ng/ml
[1]; 100 mg QD Part 1
  Tmax, Median: 1.02 h
[1]; 100 mg QD Part 2
  Tmax, Median: 1 h
Plasma renin activity; Wk 4, 12.5 mg BID
  Renin Activity, Mean (SD) Observed: 5.989 (11.272) μg/L/hr
  Renin Activity, Mean (SD) Percent Change from Baseline: 838.89 (2411.4) %
Plasma renin activity; Wk 4, 12.5 mg QD
  Renin Activity, Mean (SD) Observed: 1.804 (3.565) μg/L/hr
  Renin Activity, Mean (SD) Percent Change from Baseline: 85.09 (291.65) %
Plasma renin activity; Wk 4, 25 mg BID
  Renin Activity, Mean (SD) Observed: 2.860 (4.219) μg/L/hr
  Renin Activity, Mean (SD) Percent Change from Baseline: 344.07 (480.75) %
Plasma renin activity; Wk 4, 50 mg QD
  Renin Activity, Mean (SD) Observed: 3.940 (9.162) μg/L/hr
  Renin Activity, Mean (SD) Percent Change from Baseline: 359.69 (888.86) %
Plasma renin activity; Wk 4, 100 mg QD
  Renin Activity, Mean (SD) Observed: 3.870 (6.308) μg/L/hr
  Renin Activity, Mean (SD) Percent Change from Baseline: 489.18 (974.60) %
  Renin Activity, Mean Observed: 12.642 µg/L/h
  Renin Activity, Mean Percent Change from Baseline: 811.54%
Plasma renin activity; Wk 12, 12.5 mg BID
  Renin Activity, Mean (SD) Observed: 5.118 (11.751) μg/L/hr
  Renin Activity, Mean (SD) Percent Change from Baseline: 212.37 (402.15) %
Plasma renin activity; Wk 12, 12.5 mg QD
  Renin Activity, Mean (SD) Observed: 2.429 (5.048) μg/L/hr
  Renin Activity, Mean (SD) Percent Change from Baseline: 137.45 (279.23) %
Plasma renin activity; Wk 12, 25 mg BID
  Renin Activity, Mean (SD) Observed: 2.898 (8.323) μg/L/hr
  Renin Activity, Mean (SD) Percent Change from Baseline: 198.91 (423.17) %
Plasma renin activity; Wk 12, 50 mg QD
  Renin Activity, Mean (SD) Observed: 3.374 (7.008) μg/L/hr
  Renin Activity, Mean (SD) Percent Change from Baseline: 400.07 (808.60) %
Plasma renin activity; Wk 12, 100 mg QD
  Renin Activity, Mean (SD) Observed: 1.653 (2.830) μg/L/hr
  Renin Activity, Mean (SD) Percent Change from Baseline: 94.66 (221.58) %
Plasma renin activity; Wk 10, 100 mg QD
  Renin Activity, Mean Observed: 7.602 µg/L/h
  Renin Activity, Mean Percent Change from Baseline: 192.62%
Plasma renin activity; across doses
  Plasma renin activity, pharmacodynamic response: commensurate increase in plasma renin activity
Plasma renin activity; irrespective of dose and baseline PRA, highest at Week 4
  Renin activity, percent change from baseline: increased in all subjects treated with lorundrostat
Hypertensive subjects; 25 mg BID, Part 1
  Increase in potassium levels relative to baseline: 0.341 mmol/L
Hypertensive subjects; 50 mg QD (n = 28)
  Serum K+ Mean Change from Baseline to Wk 8: +0.25 mmol/L
  Individuals with increased serum K+, Mild 5.6-6.0 mMol/L (number): 1
  Individuals with increased serum K+, Mild 5.6-6.0 mMol/L (percent): (10.7%)
  Individuals with increased serum K+, Moderate 6.1-6.5 mMol/L: 0
Hypertensive subjects; 100 mg QD (n = 61)
  Serum K+ Mean Change from Baseline to Wk 8: +0.29 mmol/L
  Individuals with increased serum K+, Mild 5.6-6.0 mMol/L (number): 8
  Individuals with increased serum K+, Mild 5.6-6.0 mMol/L (percent): (13.1%)
  Individuals with increased serum K+, Moderate 6.1-6.5 mMol/L: 1 (1.6%)
  Individuals with increased serum K+, Severe >6.5 mMol/L: 1 (1.6%)
Hypertensive subjects; 100 mg QD, Part 1
  Number of individuals with verified or multiple increased serum K+ 5.2-5.5 mMol/L: 5
  Number of individuals with verified or multiple increased serum K+ 5.6-6.0 mMol/L: 3
  Number of individuals with verified or multiple increased serum K+ 6.1-6.5 mMol/L: 0
  Percent of individuals with verified or multiple increased serum K+ 5.2-5.5 mMol/L: (18.5%)
  Percent of individuals with verified or multiple increased serum K+ 5.6-6.0 mMol/L: (10.7%)
Hypertensive subjects; 100 mg QD, Part 1, isolated incident not verified by repeat measurement
  Number of individuals with increased serum K+ >6.5 mMol/L: 1*
Hypertensive subjects; 100 mg QD, Part 2
  Number of individuals with verified or multiple increased serum K+ 5.2-5.5 mMol/L: 1
  Number of individuals with verified or multiple increased serum K+ 5.6-6.0 mMol/L: 0
  Number of individuals with verified or multiple increased serum K+ 6.1-6.5 mMol/L: 0
  Number of individuals with verified or multiple increased serum K+ >6.5 mMol/L: 0
  Percent of individuals with verified or multiple increased serum K+ 5.2-5.5 mMol/L: (4%)
  Increase in potassium levels relative to baseline: 0.208 mmol/L
Hypertensive subjects; 100 mg QD, Pooled
  Number of individuals with verified or multiple increased serum K+ 5.2-5.5 mMol/L: 6
  Number of individuals with verified or multiple increased serum K+ 5.6-6.0 mMol/L: 3
  Number of individuals with verified or multiple increased serum K+ 6.1-6.5 mMol/L: 0
  Number of individuals with verified or multiple increased serum K+ >6.5 mMol/L: 0
  Percent of individuals with verified or multiple increased serum K+ 5.2-5.5 mMol/L: (10.3%)
  Percent of individuals with verified or multiple increased serum K+ 5.6-6.0 mMol/L: (5.2%)
Hypertensive subjects; All Active (n = 163)
  Individuals with increased serum K+, Mild 5.6-6.0 mMol/L (number): 16
  Individuals with increased serum K+, Mild 5.6-6.0 mMol/L (percent): (9.8%)
  Individuals with increased serum K+, Moderate 6.1-6.5 mMol/L: 4 (2.5%)
  Individuals with increased serum K+, Severe >6.5 mMol/L: 2*
Hypertensive subjects; Part 1 (N 26)
  Change in group mean serum potassium (K+), Mean: +0.50 mMol/L
Hypertensive subjects; Part 1, N 26*
  Change in group mean serum potassium (K+), Mean: +0.50 mMol/L
Hypertensive subjects; Part 2 (N 31)
  Change in group mean serum potassium (K+), Mean: +0.23 mMol/L
Hypertensive subjects; Part 2, N 31
  Change in group mean serum potassium (K+), Mean: +0.23 mMol/L
Hypertensive subjects; Parts 1 and 2, listed as lorundrostat
  Subjects with transient elevated serum potassium greater than 6.0 mmol/L: seven
Hypertensive subjects; Pooled (N 57)
  Change in group mean serum potassium (K+), Mean: +0.35 mMol/L
Hypertensive subjects; Pooled, N 57
  Change in group mean serum potassium (K+), Mean: +0.35 mMol/L
Hypertensive subjects; active treatment cohorts, Parts 1 and 2
  Serum potassium levels compared with placebo: increased
